“And” between values parts separate entries of the source, which are not always exact repeats. Equal values may be shown once. Read-outs that look alike come from different tables or passages of the source.

The target in assay [1] is T1, human A2BAR (Homo sapiens, UniProt P29275).
T1 construct: host or cells: CHO-spap
T1 sequence (P29275 1-332): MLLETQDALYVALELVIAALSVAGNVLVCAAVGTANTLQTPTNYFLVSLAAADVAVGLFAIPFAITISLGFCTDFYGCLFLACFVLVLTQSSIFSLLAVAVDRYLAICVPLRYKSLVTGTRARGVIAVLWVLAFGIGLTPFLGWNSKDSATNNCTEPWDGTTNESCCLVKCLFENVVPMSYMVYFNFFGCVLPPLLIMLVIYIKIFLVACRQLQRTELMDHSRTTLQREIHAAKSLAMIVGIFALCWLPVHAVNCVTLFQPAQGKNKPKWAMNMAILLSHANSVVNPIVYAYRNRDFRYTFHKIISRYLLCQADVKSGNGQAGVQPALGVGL
As to the kind of experiment: [3H]PSB-603 displacement on CHO-spap-hA2BAR membranes. The assay is classed as binding.

Assay [2] addresses T2, A1 adenosine receptor (Rattus norvegicus, UniProt P25099).
T2 sequence (P25099 1-326): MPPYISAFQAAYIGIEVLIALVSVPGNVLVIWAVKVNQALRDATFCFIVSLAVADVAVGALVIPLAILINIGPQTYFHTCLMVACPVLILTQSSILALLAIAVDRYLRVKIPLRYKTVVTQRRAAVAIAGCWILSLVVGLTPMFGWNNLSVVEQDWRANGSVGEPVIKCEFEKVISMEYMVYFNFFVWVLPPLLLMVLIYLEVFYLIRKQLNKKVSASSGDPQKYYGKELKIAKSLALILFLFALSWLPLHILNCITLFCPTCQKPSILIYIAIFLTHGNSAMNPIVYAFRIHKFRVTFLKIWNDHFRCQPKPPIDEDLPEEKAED
As to the kind of experiment: Radioligand binding, rat A1 ([3H]R-PIA, HEK-293). As to conditions: HEK-293, [3H]R-PIA. An excerpt:
(§1) The A2B receptor selectivity was generally low, especially at the rat A2B receptor.

Assay [3] has as its target A2A adenosine receptor (Rattus norvegicus, UniProt P30543). Nature of the assay: Radioligand binding, rat A2A ([3H]CGS21680, HEK-293). The note with it: rat (r), HEK-293, [3H]CGS21680.
The target in the next assay is T3, A2B adenosine receptor (Rattus norvegicus, UniProt P29276).
T3 sequence (P29276 1-332): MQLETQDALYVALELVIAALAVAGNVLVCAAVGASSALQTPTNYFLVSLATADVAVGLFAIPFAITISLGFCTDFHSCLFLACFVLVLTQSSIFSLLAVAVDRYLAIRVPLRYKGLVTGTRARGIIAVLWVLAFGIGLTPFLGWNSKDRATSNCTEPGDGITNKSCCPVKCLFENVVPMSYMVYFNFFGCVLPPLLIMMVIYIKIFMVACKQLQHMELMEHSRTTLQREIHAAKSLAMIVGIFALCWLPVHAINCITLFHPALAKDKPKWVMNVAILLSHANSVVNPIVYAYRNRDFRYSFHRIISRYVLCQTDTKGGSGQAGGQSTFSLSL
As to the kind of experiment: Radioligand binding, rat A2B ([125I]I-ABOPX, HEK-293). The note with it: rat (r), HEK-293, [125I]I-ABOPX.

Assay [4] concerns the target T1, human A2BAR. As to the kind of experiment: [3H]PSB-603 competition association assay. The assay is classed as binding. The note with it: for RT: RT = 1/koff, competing ligand at 1.0-fold IC50, up to 3 hr; for Kd: read-out: Kinetic KD (koff/kon). How it is done: In all radioligand binding experiments, CHO-spap-hA2BAR membranes were thawed and homogenized using an Ultra Turrax homogenizer at 24,000 rpm (IKA-Werke GmbH & Co.KG, Staufen, Germany), diluted in assay buffer to the desired concentration (10–30 μg per well or Eppendorf tube). All materials were brought to 25 °C, 30 min prior to the experiment. ZM241385 (10 μM) was used to determine nonspecific binding (NSB).
Addition of CHO-spap-hA2BAR membrane aliquots initiated the association. The amount of receptor-bound radioligand was determined at different time points up to 3 hr. After 3 hr the incubation was terminated and samples were obtained as described under “Displacement experiments”.
All competition association data were globally fitted.

In assay [5] the target is A2A adenosine receptor (Homo sapiens, UniProt P29274). As to the kind of experiment: Radioligand binding, human A2A ([3H]CGS21680, HEK-293). The note with it: HEK-293, [3H]CGS21680.
A2A adenosine receptor (Homo sapiens, UniProt P29274), sequence (P29274 whole entry): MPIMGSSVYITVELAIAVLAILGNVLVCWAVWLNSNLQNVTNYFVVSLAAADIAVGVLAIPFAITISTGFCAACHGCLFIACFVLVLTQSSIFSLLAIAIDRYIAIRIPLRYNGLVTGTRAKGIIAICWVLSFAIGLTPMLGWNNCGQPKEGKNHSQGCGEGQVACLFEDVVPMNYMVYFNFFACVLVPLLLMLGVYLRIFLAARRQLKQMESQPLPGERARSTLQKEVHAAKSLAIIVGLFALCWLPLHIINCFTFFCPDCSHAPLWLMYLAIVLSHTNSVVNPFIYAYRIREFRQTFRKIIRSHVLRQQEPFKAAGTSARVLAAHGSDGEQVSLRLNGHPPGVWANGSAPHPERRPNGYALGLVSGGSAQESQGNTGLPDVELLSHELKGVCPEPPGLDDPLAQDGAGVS
In assay [6] the target is T4, A1 adenosine receptor (Homo sapiens, UniProt P30542).
T4 sequence (P30542 1-326): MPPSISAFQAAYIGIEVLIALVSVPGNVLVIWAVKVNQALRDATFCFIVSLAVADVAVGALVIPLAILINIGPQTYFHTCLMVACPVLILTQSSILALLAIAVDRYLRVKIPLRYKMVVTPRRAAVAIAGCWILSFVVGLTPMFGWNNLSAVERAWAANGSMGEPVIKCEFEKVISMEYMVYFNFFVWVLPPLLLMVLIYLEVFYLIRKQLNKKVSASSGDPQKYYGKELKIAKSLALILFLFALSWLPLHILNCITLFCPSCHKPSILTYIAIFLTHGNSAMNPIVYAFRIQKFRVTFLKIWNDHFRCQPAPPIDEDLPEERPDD
Nature of the assay: Radioligand binding, human A1 ([3H]R-PIA, HEK-293). The note with it: HEK-293, [3H]R-PIA.
Description: as §1

The mark [7] stands for this setting: […] [3H]PSB-603, 2 h, 25 °C, read-out: Ki (converted).
The mark [8] stands for this setting: […] [3H]PSB-603, 2 h, 25 °C, read-out: pKi (converted).

A2A adenosine receptor (Rattus norvegicus, UniProt P30543), sequence (P30543 whole entry): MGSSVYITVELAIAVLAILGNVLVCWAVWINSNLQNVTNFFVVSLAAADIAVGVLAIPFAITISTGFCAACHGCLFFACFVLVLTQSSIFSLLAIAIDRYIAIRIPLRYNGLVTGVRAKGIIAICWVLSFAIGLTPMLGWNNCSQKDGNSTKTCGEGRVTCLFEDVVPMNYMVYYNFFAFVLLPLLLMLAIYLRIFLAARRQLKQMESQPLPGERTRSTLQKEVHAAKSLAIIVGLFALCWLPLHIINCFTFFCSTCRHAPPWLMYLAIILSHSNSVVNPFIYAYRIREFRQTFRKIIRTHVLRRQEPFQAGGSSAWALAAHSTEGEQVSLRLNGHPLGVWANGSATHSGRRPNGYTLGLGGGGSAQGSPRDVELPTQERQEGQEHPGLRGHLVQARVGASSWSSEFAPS

In turn, “2-(4-(2,6-dioxo-1,3-dipropyl-2,3,6,7-tetrahydro-1H-purin-8-yl) phenoxy)-N-(pyridin-4-ylmethyl)acetamide [Compound 9]” registered a pKi at human A2BAR [1] ([…] [3H]PSB-603, 2 h, 25 °C) of 5.87 ± 0.16. Also, the Ki on human A2BAR [1] (setting [7]) is 1350 nM.
In the case of `CCCn1c(=O)c2[nH]c(-c3ccc(OCC(=O)NC4CC4)cc3)nc2n(CCC)c1=O` [Compound 3, N-cyclopropyl-2-(4-(2,6-dioxo-1,3-dipropyl-2,3,6,7-tetrahydro-1H-purin-8-yl)phenoxy)acetamide], the Ki on human A2BAR [1] (setting [7]) is 36.3 nM; at A1 adenosine receptor [2] it was 10.7 ± 1.75 nM; at A2A adenosine receptor [3], 51.7 ± 19.6 nM; at A2B adenosine receptor it was 36.6 ± 5.1 nM. For the same compound, on human A2BAR [4] (25 °C), the RT is 0.9 min and 0.9 ± 0.0 min. Moreover, on human A2BAR [4] (read-out: koff (converted)), the koff is 0.0178 s⁻¹. Besides, the association rate constant (kon) at human A2BAR [4] (read-out: kon (converted)) was 600000 M⁻¹ s⁻¹.
`CCCn1c(=O)c2[nH]c(-c3ccc(OCC(=O)NC4CCC4)cc3)nc2n(CCC)c1=O` [Compound 4, N-cyclobutyl-2-(4-(2,6-dioxo-1,3-dipropyl-2,3,6,7-tetrahydro-1H-purin-8-yl)phenoxy)acetamide]: the Ki at human A2BAR [1] (setting [7]) was 61400 nM; at human A2BAR [1] ([…] [3H]PSB-603, 2 h, 25 °C, read-out: affinity (Ki)), 61400 nM.
`CCCn1c(=O)c2[nH]c(-c3ccc(OCC(=O)NC4CCCC4)cc3)nc2n(CCC)c1=O` [Compound 5, N-cyclopentyl-2-(4-(2,6-dioxo-1,3-dipropyl-2,3,6,7-tetrahydro-1H-purin-8-yl)phenoxy)acetamide]: the Ki was 16700 nM at human A2BAR [1] (setting [7]), 13.9 ± 1.8 nM at A1 adenosine receptor [2], 19.1 ± 5.1 nM on A2A adenosine receptor [3] and 26.3 nM on A2B adenosine receptor.
For `CCCn1c(=O)c2[nH]c(-c3ccc(OCC(=O)Nc4cc[nH]n4)cc3)nc2n(CCC)c1=O` [Compound 6, 2-(4-(2,6-dioxo-1,3-dipropyl-2,3,6,7-tetrahydro-1H-purin-8-yl)phenoxy)-N-(1H-pyrazol-3-yl)acetamide], the Ki at human A2BAR [1] (setting [7]) was 5480 nM.
For `CCCn1c(=O)c2[nH]c(-c3ccc(OCC(=O)NC4CCCCC4)cc3)nc2n(CCC)c1=O` [Compound 7, N-cyclohexyl-2-(4-(2,6-dioxo-1,3-dipropyl-2,3,6,7-tetrahydro-1H-purin-8-yl)phenoxy)acetamide], the Ki at human A2BAR [1] (setting [7]) was 951 nM; at A1 adenosine receptor [2] it was 23 ± 4.1 nM; on A2A adenosine receptor [3], 19.3 ± 6.7 nM; at A2B adenosine receptor, 73.5 ± 25.8 nM.
`CCCn1c(=O)c2[nH]c(-c3ccc(OCC(=O)Nc4ccccc4)cc3)nc2n(CCC)c1=O` [Compound 8]: at human A2BAR [1] (setting [7]), the Ki was 1.93 nM. Further, the RT at human A2BAR [4] (25 °C) is 46 min and 46 ± 13 min. Also, the koff on human A2BAR [4] (read-out: koff (converted)) was 0.000367 s⁻¹. For the same compound, on human A2BAR [4] (read-out: kon (converted)), the kon was 250000 M⁻¹ s⁻¹.
With `CCCn1c(=O)c2[nH]c(-c3ccc(OCC(=O)Nc4cnccn4)cc3)nc2n(CCC)c1=O` [Compound 10, 2-(4-(2,6-dioxo-1,3-dipropyl-2,3,6,7-tetrahydro-1H-purin-8-yl)phenoxy)-N-(pyrazin-2-yl)acetamide], the Ki at human A2BAR [1] (setting [7]) was 6950 nM.
For `CCCn1c(=O)c2[nH]c(-c3ccc(OCC(=O)N(CC(=O)OCC)CC(=O)OCC)cc3)nc2n(CCC)c1=O` [Compound 11], at human A2BAR [1] (setting [8]), the Ki is 112 nM.
For the compound `CCCn1c(=O)c2[nH]c(-c3ccc(OCC(=O)Nc4ccc(C)cc4)cc3)nc2n(CCC)c1=O` [Compound 12], the Ki on human A2BAR [1] (setting [7]) was 3.42 nM. On human A2BAR [4] (25 °C), this compound displayed an RT of 55 ± 25 min. Besides, the Kd on human A2BAR [4] is 2.7 ± 1.5 nM. Also, the koff on human A2BAR [4] (read-out: koff (converted)) was 0.0003 s⁻¹. Moreover, the kon at human A2BAR [4] (read-out: kon (converted)) is 117000 M⁻¹ s⁻¹.
Take `CCCn1c(=O)c2[nH]c(-c3ccc(OCC(=O)Nc4ccc(C#N)cc4)cc3)nc2n(CCC)c1=O` [Compound 13]: the RT at human A2BAR [4] (25 °C) was 69 min and 69 ± 2.4 min.
As for `CCCn1c(=O)c2[nH]c(-c3ccc(OCC(=O)Nc4ccc([N+](=O)[O-])cc4)cc3)nc2n(CCC)c1=O` [Compound 14], on human A2BAR [1] (setting [7]), the Ki was 13.5 nM. The RT at human A2BAR [4] (25 °C) was 58 min and 58 ± 19 min. Besides, the Kd at human A2BAR [4] was 12 ± 4.9 nM. Further, on human A2BAR [4] (read-out: koff (converted)), the koff was 0.000283 s⁻¹. In addition, the kon on human A2BAR [4] (read-out: kon (converted)) is 23300 M⁻¹ s⁻¹.
As for `CCCn1c(=O)c2[nH]c(-c3ccc(OCC(=O)Nc4ccc(C(F)(F)F)cc4)cc3)nc2n(CCC)c1=O` [Compound 15], the Ki at human A2BAR [1] (setting [7]) was 2.86 nM. Besides, the kon entry at human A2BAR [4] (competing ligand at 1.0-fold IC50, […] [3H]PSB-603, up to 3 hr, 25 °C) is listed as “Kinetics outside the range of the assay (see text)”.
As to `CCCn1c(=O)c2[nH]c(-c3ccc(OCC(=O)Nc4ccc(C(C)=O)cc4)cc3)nc2n(CCC)c1=O` [Compound 16], the Ki on human A2BAR [1] is 3.03 nM. At human A2BAR [4], the koff is 0.000317 s⁻¹, the kon was 183000 M⁻¹ s⁻¹ and the Kd amounted to 1.7 ± 0.58 nM. At human A2BAR [4] (25 °C), the RT is 54 min and 54 ± 18 min.
Turning to `CCCn1c(=O)c2[nH]c(-c3ccc(OCC(=O)NCc4ccccc4)cc3)nc2n(CCC)c1=O` [Compound 19], the Ki at A2A adenosine receptor [5] was 23.8 ± 5.7 nM; on A1 adenosine receptor [6], 54.7 ± 21.2 nM; at A1 adenosine receptor [2], 5.02 nM; on A2A adenosine receptor [3], 25.9 nM.
Consider `CCCn1c(=O)c2[nH]c(-c3ccc(OCC(=O)NCc4ccc(O)c(O)c4)cc3)nc2n(CCC)c1=O` [Compound 23, N-(3,4-dihydroxybenzyl)-2-(4-(2,6-dioxo-1,3-dipropyl-2,3,6,7-tetrahydro-1H-purin-8-yl)phenoxy)acetamide], for which, on human A2BAR [1] (setting [7]), the Ki is 24.4 nM. The Kd at human A2BAR [4] was 27 ± 7.9 nM. Also, the koff on human A2BAR [4] (read-out: koff (converted)) is 0.00165 s⁻¹. For the same compound, at human A2BAR [4] (read-out: kon (converted)), the kon is 66700 M⁻¹ s⁻¹.
As for `CCCn1c(=O)c2[nH]c(-c3ccc(OCC(=O)NC(c4ccccc4)c4ccccc4)cc3)nc2n(CCC)c1=O` [Compound 26], the Ki at human A2BAR [1] (setting [7]) is 37.9 nM. Moreover, on human A2BAR [4] (25 °C), the RT amounted to 19 ± 6.2 min. In addition, at human A2BAR [4], the Kd stood at 31 ± 16 nM. Further, the koff on human A2BAR [4] (read-out: koff (converted)) is 0.000883 s⁻¹. The kon at human A2BAR [4] (read-out: kon (converted)) was 28300 M⁻¹ s⁻¹.
With `CCCn1c(=O)c2[nH]c(-c3ccc(OCC(=O)N(Cc4ccccc4)Cc4ccccc4)cc3)nc2n(CCC)c1=O` [Compound 27], the Ki on human A2BAR [1] (setting [8]) is 120 nM.

Broadly, the pKi is the negative decadic logarithm of the Ki, by convention in mol/L. A higher pKi goes with a small Ki. The koff is a measure of how fast the partners let go of each other. By kon is commonly meant the rate constant with which the complex forms.

The record behind these values is paper PMC9358681 (Biochemical pharmacology, 2022).
